{"source": "patent US20060122267A1", "about": "“Compositions and methods for attenuating mitochondria-mediated cell injury” (priority 2003, published 2006)", "key": {"mitochondrial complex I": {"molecular_target": "T1, mitochondrial complex I (Rattus norvegicus, UniProt Q66HF1)", "T1 construct": "Rat heart mitochondria were isolated using differential centrifugation; from tissue; host or cells: rat heart mitochondria (male Sprague-Dawley rats)", "T1 sequence (Q66HF1 24-727, one chain of several)": "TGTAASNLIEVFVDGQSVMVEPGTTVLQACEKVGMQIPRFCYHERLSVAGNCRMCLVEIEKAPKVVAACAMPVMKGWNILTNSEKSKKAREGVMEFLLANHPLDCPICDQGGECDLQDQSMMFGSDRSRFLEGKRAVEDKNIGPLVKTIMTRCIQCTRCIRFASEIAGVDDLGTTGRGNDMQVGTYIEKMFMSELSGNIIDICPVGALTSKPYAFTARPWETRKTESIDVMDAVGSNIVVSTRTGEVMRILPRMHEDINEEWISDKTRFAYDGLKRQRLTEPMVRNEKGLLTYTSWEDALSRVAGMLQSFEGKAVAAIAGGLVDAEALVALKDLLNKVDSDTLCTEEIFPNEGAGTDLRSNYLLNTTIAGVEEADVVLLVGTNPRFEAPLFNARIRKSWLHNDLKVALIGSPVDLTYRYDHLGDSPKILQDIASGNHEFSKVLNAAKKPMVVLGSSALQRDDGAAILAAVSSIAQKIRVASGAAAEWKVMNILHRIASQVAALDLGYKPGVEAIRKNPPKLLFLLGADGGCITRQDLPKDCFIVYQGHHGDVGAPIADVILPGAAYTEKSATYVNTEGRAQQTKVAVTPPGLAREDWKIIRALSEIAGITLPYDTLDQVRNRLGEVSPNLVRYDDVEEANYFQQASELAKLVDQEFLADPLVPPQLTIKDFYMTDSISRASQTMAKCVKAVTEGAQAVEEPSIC", "assay": "Complex I activity (rotenone-sensitive NADH/Co-Q1 oxidation/reduction) in NO donor-treated mitochondria", "format": "biochemical", "procedure": "Rat heart mitochondria were isolated using differential centrifugation (Tompkins, et al. (2005) Biochim. Biophys. Acta PMID: 16278076). Protein was determined by the Folin-phenol method (Lowry, et al. (1951) J. Bio. Chem. 193:265-75) against a standard curve constructed using bovine serum albumin. Mitochondrial incubations and all subsequent steps were performed in the dark. One mg of mitochondrial protein was suspended in 1 mL of mitochondrial respiration buffer (Tompkins, et al. (2005) supra) containing respiratory substrates glutamate (5 mM), malate (2.5 mM) and succinate (5 mM). […] Samples were centrifuged (5 minutes, 14,000×g), and supernatants removed. The pellets were then resuspended in 1 mL of respiration buffer, and centrifuged again. Pellets were frozen in liquid N2 for subsequent analysis. For ONOO^− treatments, 4 μL of 25 mM ONOO^− stock (100 μM final concentration) was added the cap of the reaction tube, the cap quickly closed and the tube shaken immediately. The process was then repeated twice at 30 second intervals, for a total of 3 additions. Mitochondria were then pelleted, washed, and frozen as for S-nitrosoglutathione samples. Complex I activity was assayed as the rotenone-sensitive oxidation of NADH, at 340 nm in the presence of coenzyme Q1 (Borutaite, et al. (2000) supra). […]"}, "[1]": {"system": "isolated adult rat cardiomyocytes", "assay": "Mitochondrial H+ leak in cardiomyocytes (respiration divided by TMRE fluorescence) after ischemia-reperfusion", "format": "cell-based", "conditions": "doses that protect cardiomyocyte viability", "procedure": "Cardiomyocyte respiration rate was measured with an oxygen electrode, and membrane potential with the fluorescent dye TMRE (20 nM) in a fluorimeter. H^+ leak is essentially the amount of work the respiratory chain must do to maintain a given membrane potential, and experimentally is derived by dividing respiration by TMRE fluoresence. […] All data are means±SEM, N>3.\nAdult rat cardiomyocytes were prepared by collagenase perfusion according to standard methods (Dai, et al. (2001) supra), yielding ˜4×10^6 cells per heart, >80% rod-shaped and viable. Incubations were in a shaking water bath at 37° C., each utilizing 5×10^5 cells in 5 mL of the KH buffers described below. For the control, cells were incubated for 2 hours in oxygenated KH buffer (95/5 O2/CO2). For ischemia-reperfusion treatment, cells were subjected to 30 minutes in oxygenated KH buffer, 1 hour in “ischemic” KH buffer (95/5 N2/CO2, pH 6.5, no glucose), and 30 minutes in oxygenated KH buffer. […] At the end of each protocol, cell viability was assayed (Trypan blue), and mitochondrial function determined (measurement of ΔΨm with the fluorescent probe TMRE, respiration with an O2 electrode, and S-nitrosothiol content by chemiluminescence and biotin-switch."}, "mitochondrial proteins": {"system": "mitochondrial proteins", "assay": "Biotin-switch analysis of mitochondrial protein S-nitrosation", "format": "biochemical, rat", "procedure": "Rat heart mitochondria were isolated using differential centrifugation (Tompkins, et al. (2005) Biochim. Biophys. Acta PMID: 16278076). Protein was determined by the Folin-phenol method (Lowry, et al. (1951) J. Bio. Chem. 193:265-75) against a standard curve constructed using bovine serum albumin. Mitochondrial incubations and all subsequent steps were performed in the dark. One mg of mitochondrial protein was suspended in 1 mL of mitochondrial respiration buffer (Tompkins, et al. (2005) supra) containing respiratory substrates glutamate (5 mM), malate (2.5 mM) and succinate (5 mM). […] Samples were centrifuged (5 minutes, 14,000×g), and supernatants removed. The pellets were then resuspended in 1 mL of respiration buffer, and centrifuged again. Pellets were frozen in liquid N2 for subsequent analysis. For ONOO^− treatments, 4 μL of 25 mM ONOO^− stock (100 μM final concentration) was added the cap of the reaction tube, the cap quickly closed and the tube shaken immediately. The process was then repeated twice at 30 second intervals, for a total of 3 additions. Mitochondria were then pelleted, washed, and frozen as for S-nitrosoglutathione samples. Complex I activity was assayed as the rotenone-sensitive oxidation of NADH, at 340 nm in the presence of coenzyme Q1 (Borutaite, et al. (2000) supra). Complex IV was assayed by monitoring the cyanide-sensitive first-order oxidation of reduced cytochrome c, at 550 nm according to established methods (Cleeter, et al. (1994) supra).\nFor biotin-switch analysis, intact mitochondrial pellets (1 mg protein solubilized in extraction buffer) or chromatography column fractions were analyzed in accordance with known methods (Jaffrey & Snyder (2001) supra). Samples were separated in duplicate on non-reducing SDS-PAGE gels; half the gel was stained with COOMASSIE® blue, and the other half blotted and probed with streptavidin-HRP and ECL™ detection (GE biosciences). Blots and stained gels were aligned, and S-nitrosated proteins excised, trypsinized, and identified by peptide mass fingerprinting. Mass spectra (MALDI-TOF) were analyzed using the MASCOT™ algorithm available on the world-wide web at matrixscience.com."}}, "data": [{"smiles": "N[C@@H](CCC(=O)N[C@@H](CSN=O)C(=O)NCC(=O)O)C(=O)O", "note": "[S-nitrosoglutathione]", "values": [{"measurement": "complex I inhibition", "setting": "mitochondrial complex I; S-nitrosoglutathione treatment of mitochondria, exposure to light", "value": "complex I inhibition that was reversible by exposure of mitochondria to light"}, {"measurement": "maximum complex I inhibition", "setting": "mitochondrial complex I; dose response 10-500 μM", "value": "20-25%"}, {"measurement": "effect on increase in mitochondrial H+ leak induced by ischemia-reperfusion", "setting": "[1]", "value": "prevent large increases in H^+ leak"}, {"measurement": "S-nitrosation of entire mitochondrial protein extract, comparison of NO donors", "setting": "mitochondrial proteins; S-nitrosoglutathione 1 mM, DETA-NONOate 2 mM, ONOO- 3 additions of 100 μM, 37° C., 40 minutes", "value": "far more S-nitrosation than DETA-NONOate or ONOO^−"}, {"measurement": "concentration at which formation of protein bound S-nitrosothiol saturates", "setting": "mitochondrial proteins; biotin-switch and chemiluminescent data together", "value": "~250", "unit": "µM"}, {"measurement": "concentration at which plateau of mitochondrial protein S-nitrosation is reached", "setting": "mitochondrial proteins; dose response over 50-250 μM", "value": "~200", "unit": "µM"}]}]}
